Experimental data taken from US20240181087A1, “COMPOSITION FOR CONTRAST IMAGING OF CANCER” (ASTELLAS PHARMA INC., priority 2021, published 2024).

Assays:
Format in all cases: in vivo
[1] = system: mouse bladder cancer cell MB49; test: near-infrared fluorescence observation of bladder after tail vein administration, MB49 bladder cancer mouse model
Method: (§1) Two bladder cancer mouse models (weight: about 20 g), having mouse bladder cancer cell MB49 transplanted in the bladder mucosa, and then grown for 3 weeks or 4 weeks, were used. To the tail vein of each of the mice, 0.2 mL of a saline containing the compound III (concentration of the compound III: 0.075 mg/mL) was administered, and after 1 day, the mouse was subjected to laparotomy under anesthesia by subcutaneous administration of ketamine (75 mg/kg) and medetomidine (1 mg/kg), and near-infrared fluorescence observation was performed with a near-infrared fluorescence imaging device (pde-neo, manufactured by Hamamatsu Photonics K.K., excitation wavelength: 760 nm, detection wavelength: fluorescence of 800 nm or more, the same applies hereinafter) (FIG. 1, right: near-infrared fluorescence image).
As a comparative example, a saline containing the compound III was administered to the tail vein of a normal mouse (weight: about 20 g), and after 1 day, the mouse was subjected to laparotomy under anesthesia by subcutaneous administration of ketamine (75 mg/kg) and medetomidine (1 mg/kg), and near-infrared fluorescence observation was performed with a near-infrared fluorescence imaging device (pde-neo, manufactured by Hamamatsu Photonics K.K.) (FIG. 2).
Two bladder cancer model mice (weight: about 20 g), having mouse bladder cancer cell MB49 transplanted in the bladder mucosa, and then grown for 3 weeks or 4 weeks, were used. To the tail vein of each of the mice, 0.2 mL of a saline containing the compound III (concentration of the compound III: 0.075 mg/mL) was administered. One day after the administration, the mouse was subjected to laparotomy under anesthesia by subcutaneous administration of ketamine (75 mg/kg) and medetomidine (1 mg/kg), and under observation of near-infrared fluorescence with a near-infrared fluorescence imaging device (pde-neo, manufactured by Hamamatsu Photonics K.K.), a cancer tissue site emitting near-infrared fluorescence was taken out for near-infrared fluorescence observation (FIG. 5, right: near-infrared fluorescence image). […]

RenCa cell = test: near-infrared fluorescence imaging of liver, liver cancer-bearing mouse (RenCa, intravenous inoculation); conditions: tail vein 120 nmol/kg, after 10 minutes, laparotomy
Method: Metastatic spontaneous renal cell carcinoma line from BALB/c mouse, RenCa cell (1×10^6 cells, purchased from CLS Cell Lines Service GmbH, Eppelheim, Germany) was intravenously inoculated into a mouse (BALB/cCrSlc, SPF, female, 7 weeks old) under anesthesia by subcutaneous administration of ketamine (75 mg/kg) and medetomidine (1 mg/kg), and the resultant mouse was bred for 18 days to cause liver cancer therein. The mouse was anesthetized by subcutaneous administration of ketamine (75 mg/kg) and medetomidine (1 mg/kg), and the compound III (120 nmol/kg weight) was administered through the tail vein. After 10 minutes, laparotomy was conducted to perform near-infrared fluorescence imaging with a near-infrared fluorescence imaging device (pde-neo, manufactured by Hamamatsu Photonics K.K.). Near-infrared fluorescence of the compound III from a liver normal tissue was strong, light emission of the compound III from a liver cancer site (framed site in the right image) was very weak, and thus, the normal site and the cancer site could be distinguished from each other depending on the light emission (FIG. 19).

[2] = system: mouse bladder cancer cell MB49; test: near-infrared fluorescence observation of bladder after intravesical administration via the urethra, MB49 bladder cancer mouse model; conditions: into bladder via urethra, after 30 minutes washed with saline five times
Method: as §1, with “bladder” for “tail vein”, “administered via the urethra,” for “administered,”, “30 minutes, the inside of the bladder was washed via the urethra with saline five times. Thereafter,” for “1 day,”, “K.K.)” for “K.K., excitation wavelength: 760 nm, detection wavelength: fluorescence of 800 nm or more, the same applies hereinafter)”, “3,” for “1,”
As a comparative example, a saline containing the compound III was administered to the bladder of a normal mouse (weight: about 20 g) via the urethra, and after 30 minutes, the inside of the bladder was washed via the urethra with saline five times. Thereafter, the mouse was subjected to laparotomy under anesthesia by subcutaneous administration of ketamine (75 mg/kg) and medetomidine (1 mg/kg), and near-infrared fluorescence observation was performed with a near-infrared fluorescence imaging device (pde-neo, manufactured by Hamamatsu Photonics K.K.) (FIG. 4). […]

Structure (SMILES): COC1=C(/C=C/C2=[N+](CCC(=O)NCCCO[C@H]3[C@H]4O[C@H]5[C@H](O)[C@@H](O)[C@@H](O[C@H]6[C@H](O)[C@@H](O)[C@@H](O[C@H]7[C@H](O)[C@@H](O)[C@@H](O[C@H]8[C@H](O)[C@@H](O)[C@@H](O[C@H]9[C@H](O)[C@@H](O)[C@@H](O[C@H]%10[C@H](O)[C@@H](O)[C@@H](O[C@@H]([C@@H]3O)[C@@H](CO)O4)O[C@@H]%10CO)O[C@@H]9CO)O[C@@H]8CO)O[C@@H]7CO)O[C@@H]6CO)O[C@@H]5CO)c3ccc4ccccc4c3C2(C)C)CCC/C1=C\C=C1\N(CCC(=O)NCCCO[C@H]2[C@H]3O[C@H]4[C@H](O)[C@@H](O)[C@@H](O[C@H]5[C@H](O)[C@@H](O)[C@@H](O[C@H]6[C@H](O)[C@@H](O)[C@@H](O[C@H]7[C@H](O)[C@@H](O)[C@@H](O[C@H]8[C@H](O)[C@@H](O)[C@@H](O[C@H]9[C@H](O)[C@@H](O)[C@@H](O[C@@H]([C@@H]2O)[C@@H](CO)O3)O[C@@H]9CO)O[C@@H]8CO)O[C@@H]7CO)O[C@@H]6CO)O[C@@H]5CO)O[C@@H]4CO)c2ccc3ccccc3c2C1(C)C.[Cl-] [compound III, 3-(3-{[3-(cyclomaltoheptaose-21-O-yl)propyl]amino}-3-oxopropyl)-2-{(1E)-2-[(3E)-3-{(2E)-2-[3-(3-{[3-(cyclomaltoheptaose-21-O-yl)propyl]amino}-3-oxopropyl)-1,1-dimethyl-1,3-dihydro-2H-benzo[e]indol-2-ylidene]ethylidene}-2-methoxycyclohexa-1-en-1-yl]ethene-1-yl}-1,1-dimethyl-1H-benzo[e]indol-3-ium chloride]
- excision of tumor tissue with fluorescence emitted from the cancer tissue used as a guide ([1]; MB49 bladder cancer mouse model, 0.2 mL saline 0.075 mg/mL, 1 day after administration): could be appropriately excised
- near-infrared fluorescence in cancer tissue of the bladder ([1]; MB49 bladder cancer mouse model, 0.2 mL saline 0.075 mg/mL, after 1 day, laparotomy): specifically observed
- near-infrared fluorescence of normal tissue (bladder) ([1]; normal mouse, after 1 day, laparotomy): did not emit near-infrared fluorescence
- light emission from liver cancer site (RenCa cell): very weak
- near-infrared fluorescence from liver normal tissue (RenCa cell): strong
- near-infrared fluorescence in cancer tissue of the bladder ([2]; MB49 bladder cancer mouse model, 0.2 mL 0.075 mg/mL): specifically observed
- near-infrared fluorescence of normal tissue (bladder) ([2]; normal mouse): did not emit near-infrared fluorescence
